In US9636021B2, “Flavonoid compounds of low toxicity for biological imaging applications” (The University of Akron, priority 2014, dated 2017):

Legend:
[1] = target: T1, bovin serum albumin (BSA) (Bos taurus, UniProt P02769); assay: interaction between CDCO and BSA (absorption, fluorescence, warfarin displacement); assay type: binding, bovine
T1 construct: purchased Sigma Aldrich (St. Louis, Mo.)
Text: The bovin serum albumin (BSA) as the common protein model was used to investigate the interaction between CDCO and proteins. After addition of one equivalent of BSA, the absorption peak at 385 nm was shifted to 402 nm. With the excitation at 400 nm, the fluorescence intensity of CDCO was enhanced about 2-fold, which was accompanied with a large blue-shift (by about 60 nm) from 560 nm to 500 nm. […] However, when the sample was excited at 570 nm, a red/near-infrared fluorescence peak was detected at 700 nm. In order to determine the location of CDCO on BSA, the displacement of CDCO was carried out by addition of warfarin, which is known to strongly bind to the warfarin binding site in Domain II A of BSA. […] It is believed that the emission at 750 nm might be related to the complicated charge and energy transfer inside dye-BSA complex.

zebrafish vitellogenin = assay: interaction between CDCO and zebrafish vitellogenin; assay type: binding
Procedure: ^1H NMR and ^13C NMR spectra were obtained using an AVANCE II apparatus from Bruker Corporation (Billerica, Mass.). UV-vis spectra were acquired on an 8453 diode-array spectrometer from Hewlett-Packard (Palo Alto, Calif.). Fluorescence spectra were measured by RF-5301 PC spectrometer from Shimadzu Corporation (Kyoto, Japan). Electrospray ionization (ESI) mass spectra were acquired with a Synapt HDMS quadrupole/time-of-flight (Q/ToF) mass spectrometer from Waters Corporation (Milford, Mass.). All the solvents for the fluorescence experiments were analytic grade, which were purchased from Fisher Scientific (Waltham, Mass.) and used without further purification. Bovine serum albumin was purchased from Sigma Aldrich (St. Louis, Mo.). Zebrafish vitellogenin standard was purchased from Cayman Europe Biosense Laboratories (No. V01008301). The fluorescence imaging was obtained by X-Cite™ Series 120Q fluorescence microscope from Lumen Dynamics. For the blue channel filter: excitation 365 nm, beam splitter FT 395 nm, emission 445/50 nm. For the green channel filter: excitation 450-490 nm, beam splitter FT 510 nm, emission 515-565 nm. For the red channel filter: excitation 587/25 nm, beam splitter FT 605 nm, emission 647/70 nm.
Zebrafish embryos at 16 hours post fertilization (hpf) were initially used to study the CDCO's stain ability. […]

[2] = tested on: yolk syncytial layer (YSL) of zebrafish embryos; assay: fluorescence staining of zebrafish embryos and larvae; assay type: in vivo, zebrafish (Danio rerio)
Procedure: Zebrafish embryos at 16 hours post fertilization (hpf) were initially used to study the CDCO's stain ability. A developing zebrafish body is normally covered by chorion and enveloping layer (EVL), which prevent dye molecules permeating into the fish body. In this example, 0.2% DMSO with 10 μM CDCO was infused to the E3 medium to decrease the barrier function of the zebra fish chorion without damaging the fish embryos' structural integrity. […] Thus, it is believed that CDCO selectively stained the YSL region.
To investigate the location of CDCO labeling, zebra fish embryos at nine representative stages of early development were incubated with 10 μM CDCO for 30 minutes at 28.5° C., respectively (FIGS. 3-8). The YSL is initially generated by the collapse/fusion of marginal blastomeres with the yolk cell, and then a thin ring of YSL nuclei forms in front of blastoderm margin at high stage.
The YSL structure can persist on the edge of yolk cell until larval stages. […] This YSL-imaging method can selectively stain the YSL structure from its initial formation, to the dynamic epiboly, and finally to the disappearance of YSL, thus representing a promising tracking agent for zebrafish embryonic development studies.
Wild-type zebrafish embryos were collected and maintained as described in The Zebrafish Book by Monte Westerfield, which is incorporated herein by reference. Zebrafish were kept at 28.5° C. and maintained in E3 embryo medium (15 mM NaCl, 0.5 mM KCl, 1 mM MgSO4, 1 mM CaCl2, 0.15 mM KH2PO4, 0.05 mM Na2HPO4, 0.7 mM NaHCO3, 10^−5% methylene blue; pH 7.5).
For the example represented by FIGS. 1 and 2, 10 μL CDCO stock solution (5 mmol/L CDCO in DMSO) was added into 5 mL E3 medium, then 16 hpf zebra fish embryos were gently transferred to this medium (solution) and incubated at 28.5° C. for 30 min. The dyes which stick to the chorion of the embryos were washed away with E3 medium before imaging by fluorescence microscopy.
For the example represented by FIGS. 3-8, the zebra fish embryos at 2.5 hpf, 4.5 hpf, 6.5 hpf, 7.5 hpf, 8.5 hpf, 11.5 hpf and 16.5 hpf were separately handled following the same procedure.
For the example represented by FIG. 22, the staining time required was 1 hour, since the CDCO was more difficult to penetrate through the older fish skin. Before imaging, the zebrafish were treated with tricaine (anesthetic 0.03%).
All the zebrafish were imaged using fluorescent microscopy (Axio. Vert with X-Cite Series 120Q). The blue-CH filter: excitation 365 nm, beam splitter FT 395 nm, emission 445/50 nm. The green-CH filter: excitation 450-490 nm, beam splitter FT 510 nm, emission 515-565 nm. The red-CH filter: excitation 587/25 nm, beam splitter FT 605 nm, and emission 647/70 nm.)

[3] = tested on: yolk syncytial layer (YSL) of zebrafish embryos; assay: fluorescence stability and leakage of CDCO in zebrafish embryos; assay type: in vivo, zebrafish (Danio rerio); conditions: 5 hpf and 18 hpf embryos, 10 μM 30 min, washed, 1 hour in E3 medium
Procedure: Stability is one of the most important criteria for developing fluorescent imaging agents for living organisms, especially for tracking highly dynamic structures like the YSL.
(§1) The stable and biocompatible staining property of CDCO enables a long-term visualization method for tracking the development and migration of the YSL.
For the example represented by FIGS. 9-12, the 4.5 hpf and 17.5 hpf zebrafish embryos were firstly incubated in an E3 medium containing 10 μM CDCO and 0.2% DMSO for 0.5 h, then were washed with E3 medium, followed by incubating in the E3 medium for 1 hour.

zebrafish embryos = assay: toxicity to labeled zebrafish embryos; assay type: in vivo, zebrafish (Danio rerio); conditions: morphology and size vs non-labeled control embryos
Text: as §1

[4] = absorbance and fluorescence spectra in DMSO; assay type: physicochemical
Text: The absorbance and fluorescence spectra of compounds 1-6 in dimethyl sulfoxide (DMSO) were investigated and the results are in Table 1.

[5] = target: bovine serum albumin (BSA) (Bos taurus, UniProt P02769); assay: fluorescence turn-on with BSA in PBS buffer; assay type: binding
Procedure: In the aqueous buffer (0.5% DMSO, 10 mM of PBS, pH=7.4), the BSA binding-induced fluorescence turn-on was so large that it could be easily seen by naked eye. […] The intramolecular charge transfer along the D-A conjugated backbone plays a very important role in the environment-sensitivity of the flavone. All the evidence consistently pointed to the flavone dye entering the hydrophobic site of BSA.
Generally, the detection limit can be defined as the analyte concentration at which a 10% increase in fluorescence emission can be measured.
Therefore, the detection limits of compounds 1-6 were 2.6, 0.14, 0.59, 0.09, 14, and 3.4 μg/mL, respectively. For Off/On type fluorescent sensor, the Signal-to-Noise (S/N) ratio above 3:1 is considered reliable for visual evaluation. The visual recognizable detection limits of compounds 1-6 were calculated as 78, 4.2, 17.7, 2.7, 420, and 102 μg/mL, respectively. The reference range for serum albumin concentration in human blood plasma is approximately 35-50 mg/mL. Even in fish, the concentration of serum albumins can reach 0.5-5 mg/mL. The detection limits of the compounds were much lower than serum albumin concentration, indicating the capability for actual blood sample testing.

[6] = fluorescence quenching by water; assay type: physicochemical
Text: Upon excitation via photon irradiation, the dipole moment increased dramatically because of the charge transfer from D-A structure in compound 1. An increase in the solvent polarity could relax the excited molecules more efficiently, thus decreasing the energy of the excited state of fluorophore and resulting in a red-shifted emission. […] The fluorescence of compound 1 was nearly 100% quenched by water due to intermolecular electron or proton transfer. Non-fluorescence in water raises the possibility of eliminating the washing process in the protein detection procedure, since the free dye molecules gives negligible background signal in water.

[7] = embryos at early development stages, 10 μM, 30 minutes, 28.5° C.
[8] = with BSA 1.0 mg/ml, 10 μM dye, 10 mM PBS, 0.5% DMSO, pH 7.4
[9] = without BSA, 10 μM dye, 10 mM PBS, 0.5% DMSO, pH 7.4

T1 sequence (P02769 25-607): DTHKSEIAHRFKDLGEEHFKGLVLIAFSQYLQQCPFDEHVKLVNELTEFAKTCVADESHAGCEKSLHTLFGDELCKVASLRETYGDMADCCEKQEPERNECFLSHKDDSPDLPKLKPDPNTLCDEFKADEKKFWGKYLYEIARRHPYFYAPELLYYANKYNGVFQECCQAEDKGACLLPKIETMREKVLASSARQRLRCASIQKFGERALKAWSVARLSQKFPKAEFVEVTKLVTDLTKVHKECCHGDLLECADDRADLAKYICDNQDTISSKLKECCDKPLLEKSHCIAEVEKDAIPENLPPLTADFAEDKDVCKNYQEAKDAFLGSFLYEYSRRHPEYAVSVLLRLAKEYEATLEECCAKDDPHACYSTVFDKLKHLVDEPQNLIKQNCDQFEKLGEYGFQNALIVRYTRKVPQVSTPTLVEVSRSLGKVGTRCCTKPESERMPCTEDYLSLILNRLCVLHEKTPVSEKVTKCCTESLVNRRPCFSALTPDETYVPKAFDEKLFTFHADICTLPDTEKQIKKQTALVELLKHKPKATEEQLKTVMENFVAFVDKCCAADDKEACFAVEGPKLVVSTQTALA
bovine serum albumin (BSA), sequence (P02769 25-607): as above

CN(C)c1ccc(-c2oc3ccccc3c(=O)c2OCc2ccc(CCl)cc2)cc1 [CDCO, 3-(4-(chloromethyl)benzyloxy)-2-(4-(dimethylamino)phenyl)-4H-chromen-4-one]
effect of warfarin on red fluorescence ([1]; 5-fold excess of warfarin): did not completely quench the red fluorescence
emission after warfarin displacement ([1]; 5-fold excess of warfarin): 750 nm
absorption peak ([1]; after addition of one equivalent of BSA): 402 nm
absorption peak ([1]; before addition of BSA): 385 nm
fluorescence emission ([1]; excitation 400 nm, before BSA): 560 nm
blue-shift in fluorescence ([1]; excitation 400 nm, on addition of BSA): about 60 nm
fluorescence emission ([1]; excitation 400 nm, with one equivalent of BSA): 500 nm
fluorescence intensity enhancement ([1]; one equivalent of BSA, excitation at 400 nm): about 2 fold
red/near-infrared fluorescence peak ([1]; with BSA, excited at 570 nm): 700 nm
red fluorescence with zebrafish vitellogenin (zebrafish vitellogenin): almost no red fluorescence
staining of 16 hpf zebrafish embryos ([2]; 10 μM, 0.2% DMSO in E3 medium, 30 minutes): stained specifically the yolk-related region in the embryos
localisation of dye during embryo development [2, 7]: consistently confined to the YSL without significant leakage to the blastoderm
staining of the yolk cell [2, 7]: barely stained
fluorescent labeling of 36 hpf embryos ([2]; incubated 1 hour): strong red fluorescence as well as blue and green emission in the yolk region
fluorescent labeling of 7 days old larval zebrafish ([2]; incubated 1 hour, YSL completely absorbed): almost no red fluorescence was observed
fluorescence leakage after washing [3]: no significant fluorescence leakage to blastoderm or somite
toxicity to labeled embryos (zebrafish embryos): almost no apparent toxicity

CN(C)c1ccc(-c2oc3ccccc3c(=O)c2O)cc1 [compound 1, 2-(4-(dimethylamino)phenyl)-3-hydroxy-4H-chromen-4-one]
Φ [4]: 10.0%
λabs [4]: 403 nm
detection limit (10% increase in fluorescence emission) ([5]; BSA): 2.6 µg/mL
visual recognizable detection limit (S/N above 3:1) ([5]; BSA): 78 µg/mL
F(+)/F(−) fluorescence intensity with BSA / without BSA ([5]; BSA 1.0 mg/ml, 10 μM dye, 10 mM PBS, 0.5% DMSO, pH 7.4): 38
λabs(+) [5, 8]: 416 nm
λem(+) [5, 8]: 556 nm
λabs(−) [5, 9]: 403 nm
λem(−) [5, 9]: 560 nm
fluorescence quenched by water [6]: ~100%
